# Read-outs that look alike come from different tables or passages of the source.
# What was measured:
# [1] = biological target: Recombinant full length PARP1 (Homo sapiens (Human), UniProt P09874); assay: FP assay PARP1 (fluorescence anisotropy probe displacement); format: binding; conditions: 20 nM PARP1, 8 nM fluorescent probe, 4 h, room temperature
# Description: (§1) FP experiments were carried out at room temperature using no-binding black 384-well microplates. Recombinant full length PARP1 and PARP2 proteins produced in house were diluted to 20 nM and 60 nM, respectively, with assay buffer (50 mM Tris pH 8, 0.001% Triton X100, 10 mM MgCl2, and 150 mM NaCl) and incubated for 4 h with an equivalent volume of the 8 nM fluorescent probe diluted with assay buffer. Fluorescence anisotropy of the probe when bound to the proteins was measured in the presence of test compounds or solvent control and the effect on anisotropy determined. Polarization values were read using an Envision plate reader using excitation and emission wavelengths of 590 and 630 nm, respectively. All FP values are expressed as mP units. Inhibition ratio was calculated using readout (mP) following the equation as below: […]
# (§2) % inhibition values for different test compound concentrations were calculated and fitted to a four parameter logistic plot in order to determine the IC50 value using XLfit.
# [2] = biological target: Recombinant full length PARP2 (Homo sapiens (Human), UniProt Q9UGN5); assay: FP assay PARP2 (fluorescence anisotropy probe displacement); format: binding; conditions: 60 nM PARP2, 8 nM fluorescent probe, 4 h, room temperature
# Recombinant full length PARP2, sequence (Q9UGN5 whole entry): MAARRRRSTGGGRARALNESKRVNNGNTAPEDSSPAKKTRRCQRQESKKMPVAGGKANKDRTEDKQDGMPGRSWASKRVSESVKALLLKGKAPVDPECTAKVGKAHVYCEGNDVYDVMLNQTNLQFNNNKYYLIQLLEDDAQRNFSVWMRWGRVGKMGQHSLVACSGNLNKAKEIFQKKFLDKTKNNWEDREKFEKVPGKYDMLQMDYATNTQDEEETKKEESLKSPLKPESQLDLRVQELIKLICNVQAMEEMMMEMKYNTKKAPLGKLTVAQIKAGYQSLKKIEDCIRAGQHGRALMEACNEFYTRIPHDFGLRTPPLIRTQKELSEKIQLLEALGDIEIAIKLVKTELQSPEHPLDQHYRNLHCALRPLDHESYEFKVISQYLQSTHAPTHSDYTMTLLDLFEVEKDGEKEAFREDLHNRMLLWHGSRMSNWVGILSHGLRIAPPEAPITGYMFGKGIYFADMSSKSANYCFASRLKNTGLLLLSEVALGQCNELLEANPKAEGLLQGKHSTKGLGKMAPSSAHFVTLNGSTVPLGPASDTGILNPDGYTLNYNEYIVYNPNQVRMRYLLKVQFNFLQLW
# Description: as §1, §2
# [3] = tested on: DLD1-BRCA2−/− cells; assay: Cell proliferation assay in DLD1-BRCA2−/− cell lines (CellTiter-Glo, 7 days); format: cell-based
# Description: BRCA2 (−/−) cells cultured in RPMI 1640+10% FBS were harvested and diluted to a density of 1×10^4 cells/mL and 2×10^4 cells/mL, respectively. Cells (40 μL/well) were seeded into 384-well cell culture plates. Plates were covered and incubated at 37° C., 5% CO2 overnight prior to the addition of test compounds or vehicle. The plates were then incubated at 37° C., 5% CO2 for 7 days. On day 8, the plates were removed from incubator and equilibrated at room temperature for 15 minutes. CellTiter-Glo (40 μL, at 1:1 to culture medium) is added into each well and the plates were placed at room temperature for 30 min. Luminescence was measured using an Envision plate reader. The resultant data were analysed as follows; where LC is culture medium without cells:
# % inhibition values for different test compound concentrations were calculated and fitted to a four parameter logistic plot in order to determine the IC50 value using XLfit
# [4] = Caco2 (A-B/B-A) permeability; format: in vitro ADME; conditions: human; for efflux ratio at 120 min, 5 μM: Caco-2, pH 7.4, PappB-A/PappA-B, read-out: Caco2 efflux ratio (ER); for Papp A→B at 120 min, 5 μM: Caco-2, pH 7.4, apical-to-basolateral, read-out: Caco2 A-B apparent permeability (Papp); for Papp A→B at 120 min, 5 μM / Papp B→A at 120 min, 5 μM: HBSS pH 7.4, 120 min, 37° C.; for Papp B→A at 120 min, 5 μM: Caco-2, pH 7.4, basolateral-to-apical, read-out: Caco2 B-A apparent permeability (Papp)
# Description: The apical-to-basolateral (A-B) and basolateral-to-apical (B-A) transport of 5 μM test compounds in HBSS (10 mM HEPES, pH 7.4) was measured across Caco-2 cell monolayers (cells sourced from American Type Culture Collection, Manassas, Virgina). Duplicate incubations were performed at approximately 37° C. for 120 min, with functionality of the test system confirmed using 5 μM propranolol and digoxin as control compounds. Aliquots (50 μL) from both apical and basolateral wells were transferred into two fresh 96-well plates and quenched with acetonitrile solution containing analytical internal standards. Samples were vortexed mixed, centrifuged and a 100 μL aliquot of the resulting supernatant mixed with an equal volume of ultra-pure water prior to analysis by UPLC-MS/MS. The concentrations of test compound and control compounds in the incubation medium of donor and receiver compartments at the beginning and the end of the incubation period were used to calculate the apparent permeability (Papp) from A-B and B-A directions. The efflux ratio (ER) was expressed as PappB-A/PappA-B. The integrity of the cell monolayers after 2 hours incubation was confirmed using the marker reagent Lucifer yellow.
# Recombinant full length PARP1, sequence (P09874 whole entry): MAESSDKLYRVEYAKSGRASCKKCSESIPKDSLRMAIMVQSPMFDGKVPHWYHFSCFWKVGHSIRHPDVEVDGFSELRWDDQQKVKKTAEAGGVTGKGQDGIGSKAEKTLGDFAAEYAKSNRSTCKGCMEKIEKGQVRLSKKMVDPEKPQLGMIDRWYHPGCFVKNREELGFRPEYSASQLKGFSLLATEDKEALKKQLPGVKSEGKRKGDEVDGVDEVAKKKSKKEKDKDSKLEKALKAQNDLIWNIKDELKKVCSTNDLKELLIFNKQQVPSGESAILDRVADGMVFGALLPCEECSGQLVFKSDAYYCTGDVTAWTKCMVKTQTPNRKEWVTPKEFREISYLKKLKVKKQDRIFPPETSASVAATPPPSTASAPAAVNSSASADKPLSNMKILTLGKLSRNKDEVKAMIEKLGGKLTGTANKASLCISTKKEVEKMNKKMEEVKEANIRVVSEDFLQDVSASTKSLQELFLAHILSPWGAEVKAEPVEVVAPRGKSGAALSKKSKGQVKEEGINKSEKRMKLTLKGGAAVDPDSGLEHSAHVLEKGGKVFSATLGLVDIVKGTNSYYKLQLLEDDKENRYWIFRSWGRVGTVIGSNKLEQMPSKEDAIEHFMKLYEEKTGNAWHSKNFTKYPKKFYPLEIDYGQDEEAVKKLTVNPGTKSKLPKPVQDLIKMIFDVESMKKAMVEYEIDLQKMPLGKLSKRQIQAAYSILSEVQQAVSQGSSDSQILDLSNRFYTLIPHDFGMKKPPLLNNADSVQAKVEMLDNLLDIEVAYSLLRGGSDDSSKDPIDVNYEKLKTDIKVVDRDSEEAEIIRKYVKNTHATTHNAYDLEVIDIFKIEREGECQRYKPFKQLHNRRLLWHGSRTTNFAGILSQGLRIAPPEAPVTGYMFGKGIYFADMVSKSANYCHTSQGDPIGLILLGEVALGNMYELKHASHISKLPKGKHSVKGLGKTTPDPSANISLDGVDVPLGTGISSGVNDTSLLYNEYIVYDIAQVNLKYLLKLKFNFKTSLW
structure (smiles),measurement,setting,value
"CCc1cc2ncc(C(C)N3CC(Oc4ccc(C(=O)NC)nc4)C3)cc2[nH]c1=O (racemic) [Compound 43, 5-((1-(1-(7-ethyl-6-oxo-5,6-dihydro-1,5-naphthyridin-3-yl)ethyl)azetidin-3-yl)oxy)-N-methylpicolinamide]",IC50,[1],5.9 nM
same,IC50,[2],3.76 µM
same,IC50,"[3]; Homo sapiens, DLD-1, 168 h",12.2 nM
"CCc1nc2ccc([C@H](C)N3CC(Oc4ccc(C(=O)NC)nc4F)C3)cc2[nH]c1=O (single isomer, unassigned) [Compound 56, (enantiomer 1 or 2)-5-((1-(1-(2-ethyl-3-oxo-3,4-dihydroquinoxalin-6-yl)ethyl)azetidin-3-yl)oxy)-6-fluoro-N-methylpicolinamide]",IC50,[1],11 nM
same,IC50,"[3]; Homo sapiens, DLD-1, 168 h",10.9 nM
same,"efflux ratio at 120 min, 5 μM",[4],3.01
same,"Papp A→B at 120 min, 5 μM",[4],8.54 ×10⁻⁶ cm/s
same,"Papp B→A at 120 min, 5 μM",[4],25.8 ×10⁻⁶ cm/s
"CNC(=O)c1ccc(O[C@@H]2CCN(Cc3cnc4cc(C5CC5)c(=O)[nH]c4c3)C2)cn1 (single isomer, unassigned) [Compound 60, (enantiomer 1 or 2)-5-((1-((7-cyclopropyl-6-oxo-5,6-dihydro-1,5-naphthyridin-3-yl)methyl)pyrrolidin-3-yl)oxy)-N-methylpicolinamide]",IC50,[1],64.3 nM
same,IC50,[2],> 10 µM
same,IC50,[3],> 1000 nM
"CNC(=O)c1ccc(O[C@@H]2CCN(Cc3cnc4cc(C5CC5)c(=O)[nH]c4c3)C2)cn1 (single isomer, unassigned) [Compound 61, (enantiomer 1 or 2)-5-((1-((7-cyclopropyl-6-oxo-5,6-dihydro-1,5-naphthyridin-3-yl)methyl)pyrrolidin-3-yl)oxy)-N-methylpicolinamide]",IC50,[1],6.62 nM
same,IC50,[2],> 10 µM
same,IC50,[3],40.7 nM
"CCc1cc2ncc(CN3CC(N(C)c4ccc(C(=O)NC)nc4)C3)cc2[nH]c1=O [Compound 3, 5-((1-((7-ethyl-6-oxo-5,6-dihydro-1,5-naphthyridin-3-yl)methyl)azetidin-3-yl)(methyl)amino)-N-methylpicolinamide]",IC50,[1],4.3 nM
same,IC50,[2],> 10 µM
same,IC50,"[3]; Homo sapiens, DLD-1, 168 h",221 nM
"CCc1cc2ncc(CN3CCC(Cc4ccc(C(=O)NC)nc4)C3)cc2[nH]c1=O (stereo not shown) [Compound 7, 5-((1-((7-ethyl-6-oxo-5,6-dihydro-1,5-naphthyridin-3-yl)methyl)pyrrolidin-3-yl)methyl)-N-methylpicolinamide]",IC50,[1],7.8 nM
same,IC50,[2],7.04 µM
same,IC50,"[3]; Homo sapiens, DLD-1, 168 h",207 nM
"CNC(=O)c1ccc(OC2CCN(Cc3cnc4cc(C5CC5)c(=O)[nH]c4c3)C2)cn1 (stereo not shown) [Compound 14, 5-((1-((7-cyclopropyl-6-oxo-5,6-dihydro-1,5-naphthyridin-3-yl)methyl)pyrrolidin-3-yl)oxy)-N-methylpicolinamide]",IC50,[1],6.6 nM
same,IC50,[2],> 10 µM
same,IC50,"[3]; Homo sapiens, DLD-1, 168 h",48.6 nM
"CCc1cc2ncc(CN3CCC(Oc4ccc(C(=O)NC)nc4)CC3)cc2[nH]c1=O [Compound 15, 5-((1-((7-ethyl-6-oxo-5,6-dihydro-1,5-naphthyridin-3-yl)methyl)piperidin-4-yl)oxy)-N-methylpicolinamide]",IC50,[1],18 nM
same,IC50,[2],> 10 µM
same,IC50,"[3]; Homo sapiens, DLD-1, 168 h",195 nM
"CCc1cc2ncc(C(C)N3CC(Oc4ccc(C(=O)NC)nc4C)C3)cc2[nH]c1=O (stereo not shown) [Compound 19, 5-((1-(1-(7-ethyl-6-oxo-5,6-dihydro-1,5-naphthyridin-3-yl)ethyl)azetidin-3-yl)oxy)-N,6-dimethylpicolinamide]",IC50,[1],6.1 nM
same,IC50,[2],> 10 µM
same,IC50,"[3]; Homo sapiens, DLD-1, 168 h",> 1000 nM
"CCc1cc2ncc(C(C)N3CC(Oc4ccc(C(=O)NC)nc4F)C3)cc2[nH]c1=O (stereo not shown) [Compound 21, 5-((1-(1-(7-ethyl-6-oxo-5,6-dihydro-1,5-naphthyridin-3-yl)ethyl)azetidin-3-yl)oxy)-6-fluoro-N-methylpicolinamide]",IC50,[1],3.5 nM
same,IC50,[2],4.81 µM
same,IC50,"[3]; Homo sapiens, DLD-1, 168 h",17.2 nM
"CCc1cc2ncc(CN3C[C@H](Oc4ccc(C(=O)NC)nc4)[C@@H](F)C3)cc2[nH]c1=O [Compound 24, 5-(((3S,4S)-1-((7-ethyl-6-oxo-5,6-dihydro-1,5-naphthyridin-3-yl)methyl)-4-fluoropyrrolidin-3-yl)oxy)-N-methylpicolinamide]",IC50,[1],7.3 nM
same,IC50,[2],> 10 µM
same,IC50,"[3]; Homo sapiens, DLD-1, 168 h",542 nM
"CCc1cc2ncc(CN3CC[C@@H](Oc4ccc(C(=O)NC)nc4F)C3)cc2[nH]c1=O [Compound 29, (R)-5-((1-((7-ethyl-6-oxo-5,6-dihydro-1,5-naphthyridin-3-yl)methyl)pyrrolidin-3-yl)oxy)-6-fluoro-N-methylpicolinamide]",IC50,[1],9.6 nM
same,IC50,[2],> 10 µM
same,IC50,"[3]; Homo sapiens, DLD-1, 168 h",7.9 nM
"CCc1cc2ncc(CN3CC[C@@H](Oc4ccc(C(=O)NC)nc4C)C3)cc2[nH]c1=O [Compound 30, (R)-5-((1-((7-ethyl-6-oxo-5,6-dihydro-1,5-naphthyridin-3-yl)methyl)pyrrolidin-3-yl)oxy)-N,6-dimethylpicolinamide]",IC50,[1],4.4 nM
same,IC50,[2],> 10 µM
same,IC50,"[3]; Homo sapiens, DLD-1, 168 h",256 nM
"CCc1cc2ncc(CN3CC4CC3CN4c3ccc(C(=O)NC)nc3)cc2[nH]c1=O (stereo not shown) [Compound 37, 5-(5-((7-ethyl-6-oxo-5,6-dihydro-1,5-naphthyridin-3-yl)methyl)-2,5-diazabicyclo [2.2.1]heptan-2-yl)-N-methylpicolinamide]",IC50,"[3]; Homo sapiens, DLD-1, 168 h",> 1000 nM
same,"efflux ratio at 120 min, 5 μM",[4],18.8
same,"Papp A→B at 120 min, 5 μM",[4],1.61 ×10⁻⁶ cm/s
same,"Papp B→A at 120 min, 5 μM",[4],30.2 ×10⁻⁶ cm/s
"CCc1cc2ncc(CN3CC4CN(c5ccc(C(=O)NC)nc5)CC4C3)cc2[nH]c1=O (stereo not shown) [Compound 40, 5-(5-((7-ethyl-6-oxo-5,6-dihydro-1,5-naphthyridin-3-yl)methyl)hexahydropyrrolo [3,4-c]pyrrol-2(1H)-yl)-N-methylpicolinamide]",IC50,"[3]; Homo sapiens, DLD-1, 168 h",181 nM
same,"efflux ratio at 120 min, 5 μM",[4],8.32
same,"Papp A→B at 120 min, 5 μM",[4],4.29 ×10⁻⁶ cm/s
same,"Papp B→A at 120 min, 5 μM",[4],35.7 ×10⁻⁶ cm/s
"CCc1cc2ncc(CN3CC4CCN(c5ccc(C(=O)NC)nc5)C4C3)cc2[nH]c1=O (stereo not shown) [Compound 42, 5-(5-((7-ethyl-6-oxo-5,6-dihydro-1,5-naphthyridin-3-yl)methyl)hexahydropyrrolo[3,4-b]pyrrol-1(2H)-yl)-N-methylpicolinamide]",IC50,"[3]; Homo sapiens, DLD-1, 168 h",> 1000 nM
same,"efflux ratio at 120 min, 5 μM",[4],7.71
same,"Papp A→B at 120 min, 5 μM",[4],4.57 ×10⁻⁶ cm/s
same,"Papp B→A at 120 min, 5 μM",[4],35.3 ×10⁻⁶ cm/s
"CCc1cc2ncc(CN3CC(Oc4ccc(C(=O)NC)nc4C)C3)cc2[nH]c1=O [Compound 44, 5-((1-((7-ethyl-6-oxo-5,6-dihydro-1,5-naphthyridin-3-yl)methyl)azetidin-3-yl)oxy)-N,6-dimethylpicolinamide]",IC50,[1],4.4 nM
same,IC50,[2],> 10 µM
same,IC50,"[3]; Homo sapiens, DLD-1, 168 h",> 1000 nM
"CCc1nc2ccc(C(C)N3CC(Oc4ccc(-n5ccnn5)nc4)C3)cc2[nH]c1=O (stereo not shown) [Compound 54, 7-(1-(3-((6-(1H-1,2,3-triazol-1-yl)pyridin-3-yl)oxy)azetidin-1-yl)ethyl)-3-ethylquinoxalin-2(1H)-one]",IC50,[1],2.12 nM
same,IC50,"[3]; Homo sapiens, DLD-1, 168 h",38.5 nM
"CCc1nc2ccc(C(C)N3CC(Oc4ccc(C(=O)NC)nc4F)C3)c(F)c2[nH]c1=O (stereo not shown) [Compound 55, 5-((1-(1-(2-ethyl-5-fluoro-3-oxo-3,4-dihydroquinoxalin-6-yl)ethyl)azetidin-3-yl)oxy)-6-fluoro-N-methylpicolinamide]",IC50,[1],28.1 nM
same,IC50,"[3]; Homo sapiens, DLD-1, 168 h",554 nM
same,"efflux ratio at 120 min, 5 μM",[4],1.5
same,"Papp A→B at 120 min, 5 μM",[4],9.92 ×10⁻⁶ cm/s
same,"Papp B→A at 120 min, 5 μM",[4],14.8 ×10⁻⁶ cm/s
"CCc1cc2cnc(CN3CC[C@@H](Oc4ccc(C(=O)NC)nc4F)C3)cc2[nH]c1=O [Compound 62, (R)-5-((1-((3-ethyl-2-oxo-1,2-dihydro-1,6-naphthyridin-7-yl)methyl)pyrrolidin-3-yl)oxy)-6-fluoro-N-methylpicolinamide]",IC50,"[3]; Homo sapiens, DLD-1, 168 h",1.6 nM
same,"efflux ratio at 120 min, 5 μM",[4],12.7
same,"Papp A→B at 120 min, 5 μM",[4],2.46 ×10⁻⁶ cm/s
same,"Papp B→A at 120 min, 5 μM",[4],31.2 ×10⁻⁶ cm/s

# From US20250289814A1, “COMPOUNDS AS PARP1 INHIBITIORS” (NINGBO NEWBAY TECHNOLOGY DEVELOPMENT CO., LTD., priority 2022, published 2025)
